From US20170334877A1, “REVAPRAZAN HYDROCHLORIDE POLYMORPHS AND PREPARATION METHOD THEREFOR” (JIANGSU TASLY DIYI PHARMACEUTICAL CO., LTD., priority 2014, published 2017)
Structures can show the parent of a compound that is named as a salt.

What was measured:
Type in all cases: physicochemical
[1] = Light illumination test (intense light, 4500±500 Lx); conditions: for Stability (conclusion in words): intense light illumination, no obvious changes in appearance color, loss on drying, purity, relevant substances; for Appearance color / Loss on drying (%) / Purity (%) / Relevant substances: light 4500±500 Lx; for Loss on drying (%) / Purity (%) / Relevant substances: hydrochloride
Source text: Revaprazan hydrochloride crystalline form I is irradiated under such a condition that the light intensity is 4500±500 Lx, and is sampled on the 5th day and 10th day for detection, and the results are shown in Table 1. Revaprazan hydrochloride crystalline form II is irradiated under the condition that the light intensity is 4500±500Lx, and is sampled on the 5th day and 10th day for detection. Revaprazan hydrochloride polymorph III is irradiated under such a condition that the light intensity is 4500±500Lx, and is sampled on the 5th day and 10th day for detection. Revaprazan hydrochloride […] is irradiated under such a condition that the light intensity is 4500±500Lx, and is sampled on the 5th day and the 10th day for detection. Revaprazan hydrochloride crystalline form V is irradiated under the light intensity condition of 4500±500Lx; and is sampled on the 5th day and 10th day for detection.

[2] = High temperature test (60° C. incubator); conditions: for Appearance color / Loss on drying (%) / Purity (%) / Relevant substances: 60° C., hydrochloride; for Stability (conclusion in words): high temperature, no obvious changes in appearance color, loss on drying, purity, relevant substances
Procedure: Revaprazan hydrochloride crystalline form I is placed in a 60° C. incubator, and is sampled on the 5th day and 10th day for detection, and the results are shown in Table 2. Revaprazan hydrochloride crystalline form II is placed in a 60° C. incubator, and is sampled on the 5th day and 10th day for detection, and the results are shown in Table 6. Revaprazan hydrochloride polymorph III is placed in an incubator of 60° C., and is sampled on the 5th day and the 10th day for detection. Revaprazan hydrochloride crystalline form IV is placed in an incubator of 60° C., and is sampled on the 5th day and the 10th day for detection. Revaprazan hydrochloride crystal form 4 is placed in an incubator of 60° C.; and is sampled on the 5th day and the 10th day for detection, and the results are shown in Table 23.

[3] = High humidity test (25° C., relative humidity 75±5%); conditions: for Appearance color / Purity (%) / Relevant substances / Weight gain upon moisture absorption (%): 25° C., RH 75±5%; for Weight gain upon moisture absorption (in words): high humidity condition; for Stability (conclusion in words): high humidity, no obvious changes in appearance color, purity, relevant substances
Procedure: Revaprazan hydrochloride crystalline form I is placed in an incubator of 25° C. (relative humidity of 75±5%), and is sampled on the 5th day and 10th day for detection. Revaprazan hydrochloride crystalline form II is placed in an incubator of 25° C. (relative humidity of 75±5%), and is sampled on the 5th day and 10th day for detection. Revaprazan hydrochloride polymorph III is placed in an incubator of 25° C. (relative humidity of 75±5%), and is sampled on the 5th day and the 10th day for detection. Revaprazan hydrochloride crystalline form IV is placed in an incubator of 25° C. Revaprazan hydrochloride crystal form 4 is placed in an incubator of 25° C. (the relative humidity is 75±5%), and is sampled on the 5th day and the 10th day for detection.

[4] = Accelerated test (40±2° C., relative humidity 75±5%, 6 months, sealed polyethylene film bag); conditions: for Appearance color / Purity (%) / Relevant substances: 40±2° C., RH 75±5%; for Purity (%) / Relevant substances: hydrochloride; for Stability (conclusion in words): accelerated test, no obvious changes in appearance color, purity, relevant substances
Procedure: Revaprazan hydrochloride crystalline form I is sealed in a polyethylene film bag, is placed for 6 months under the conditions that the temperature is 40±2° C. and the relative humidity is 75±5%, and is respectively sampled at the end of the 1st Month, the 2nd Month, the 3rd Month and the 6^thMonth for detection; and the results are shown in Table 4. Revaprazan hydrochloride crystalline form II is sealed in a polyethylene film bag and is placed for 6 months under the conditions that the temperature is 40±2° C. and the relative humidity is 75±5%, and is respectively sampled at the end of the 1st Month, the 2nd Month, the 3rd Month and the 6th Month for detection; and the results are shown in Table 8. Revaprazan hydrochloride crystalline form III is sealed in a polyethylene film bag, is placed for 6 months under the conditions that the temperature is 40±2° C. and the relative humidity is 75±5%, and is sampled at the end of the 1st Month, the 2nd Month, the 3rd Month and the 6th Month for detection. Revaprazan hydrochloride crystalline form IV is sealed in a polyethylene film bag, is placed for 6 months under the conditions that the temperature is 40±2° C. and the relative humidity is 75±5%, and is sampled at the end of the 1st Month, the 2nd Month, the 3rd Month and the 6th Month for detection. Revaprazan hydrochloride crystalline form V is sealed in a polyethylene film bag and is placed for 6 months under the condition that the temperature is 40±2° C. and the relative humidity is 75±5%, and is sampled at the end of the 1st month, the 2nd month, the 3rd month and the 6th month for detection, and the results are shown in Table 20.

[5] = 5th day, listed as revaprazan hydrochloride polymorph III
[6] = 10th day, listed as revaprazan hydrochloride polymorph III
[7] = Day 0, listed as revaprazan hydrochloride polymorph III

**Q.** What does the source list for `Cc1nc(Nc2ccc(F)cc2)nc(N2CCc3ccccc3C2C)c1C` (single isomer, unassigned) [revaprazan hydrochloride crystalline form III]?
**A.** Stability (conclusion in words) [1]: stable; Appearance color ([1]; 5th day): White powder; Loss on drying (%) [1, 5]: 0.25%; Purity (%) [1, 5]: 99.92%; Relevant substances [1, 5]: Undetected; Appearance color ([1]; 10th day): White powder; Loss on drying (%) [1, 6]: 0.29%; Purity (%) [1, 6]: 99.95%; Relevant substances [1, 6]: Undetected; Appearance color ([1]; Day 0): White powder; Loss on drying (%) [1, 7]: 0.28%; Purity (%) [1, 7]: 99.95%; Relevant substances [1, 7]: Undetected; Appearance color [2, 5]: White powder; Loss on drying (%) [2, 5]: 0.26%; Purity (%) [2, 5]: 99.94%; Relevant substances [2, 5]: Undetected; Appearance color [2, 6]: White powder; Loss on drying (%) [2, 6]: 0.26%; Purity (%) [2, 6]: 99.92%; Relevant substances [2, 6]: Undetected; Appearance color [2, 7]: White powder; Loss on drying (%) [2, 7]: 0.22%; Purity (%) [2, 7]: 99.95%; Relevant substances [2, 7]: Undetected; Stability (conclusion in words) [2]: stable; Appearance color ([3]; 5th day): White powder; Purity (%) ([3]; 5th day, hydrochloride): 99.92%; Relevant substances ([3]; 5th day, hydrochloride): Undetected; Weight gain upon moisture absorption (%) ([3]; 5th day, hydrochloride): 0.47%; Appearance color ([3]; 10th day): White powder; Purity (%) ([3]; 10th day, hydrochloride): 99.94%; Relevant substances ([3]; 10th day, hydrochloride): Undetected; Weight gain upon moisture absorption (%) ([3]; 10th day, hydrochloride): 0.59%; Appearance color ([3]; Day 0): White powder; Weight gain upon moisture absorption (%) ([3]; Day 0): 0%; Purity (%) ([3]; Day 0, hydrochloride): 99.95%; Relevant substances ([3]; Day 0, hydrochloride): Undetected; Weight gain upon moisture absorption (in words) [3]: slight weight gain; Stability (conclusion in words) [3]: stable; Appearance color ([4]; 1st month): White powder; Purity (%) ([4]; 1st month): 99.92%; Relevant substances ([4]; 1st month): Undetected; Appearance color ([4]; 2nd month): White powder; Purity (%) ([4]; 2nd month): 99.91%; Relevant substances ([4]; 2nd month): Undetected; Appearance color ([4]; 3rd month): White powder; Purity (%) ([4]; 3rd month): 99.93%; Relevant substances ([4]; 3rd month): Undetected; Appearance color ([4]; 6th month): White powder; Purity (%) ([4]; 6th month): 99.95%; Relevant substances ([4]; 6th month): Undetected; Appearance color ([4]; Month 0): White powder; Purity (%) ([4]; Month 0): 99.95%; Relevant substances ([4]; Month 0): Undetected; Stability (conclusion in words) [4]: stable

**Q.** Which results are given for `Cc1nc(Nc2ccc(F)cc2)nc(N2CCc3ccccc3C2C)c1C` (single isomer, unassigned) [revaprazan hydrochloride crystalline form IV]?
**A.** Stability (conclusion in words) [1]: stable; Appearance color ([1]; 5th day): White powder; Loss on drying (%) ([1]; 5th day): 0.29%; Purity (%) ([1]; 5th day): 99.95%; Relevant substances ([1]; 5th day): Undetected; Appearance color ([1]; 10th day): White powder; Loss on drying (%) ([1]; 10th day): 0.31%; Purity (%) ([1]; 10th day): 99.92%; Relevant substances ([1]; 10th day): Undetected; Appearance color ([1]; Day 0): White powder; Loss on drying (%) ([1]; Day 0): 0.27%; Purity (%) ([1]; Day 0): 99.93%; Relevant substances ([1]; Day 0): Undetected; Appearance color ([2]; 5th day): White powder; Loss on drying (%) ([2]; 5th day): 0.27%; Purity (%) ([2]; 5th day): 99.91%; Relevant substances ([2]; 5th day): Undetected; Appearance color ([2]; 10th day): White powder; Loss on drying (%) ([2]; 10th day): 0.27%; Purity (%) ([2]; 10th day): 99.92%; Relevant substances ([2]; 10th day): Undetected; Appearance color ([2]; Day 0): White powder; Loss on drying (%) ([2]; Day 0): 0.25%; Purity (%) ([2]; Day 0): 99.93%; Relevant substances ([2]; Day 0): Undetected; Stability (conclusion in words) [2]: stable; Appearance color ([3]; 5th day): White powder; Purity (%) ([3]; 5th day, hydrochloride): 99.96%; Weight gain upon moisture absorption (%) ([3]; 5th day, hydrochloride): 0.44%; Appearance color ([3]; 10th day): White powder; Purity (%) ([3]; 10th day, hydrochloride): 99.93%; Weight gain upon moisture absorption (%) ([3]; 10th day, hydrochloride): 0.62%; Appearance color ([3]; Day 0): White powder; Weight gain upon moisture absorption (%) ([3]; Day 0): 0%; Purity (%) ([3]; Day 0, hydrochloride): 99.93%; Weight gain upon moisture absorption (in words) [3]: slight weight gain; Stability (conclusion in words) [3]: stable; Appearance color ([4]; 1st month): White powder; Purity (%) ([4]; 1st month): 99.91%; Relevant substances ([4]; 1st month): Undetected; Appearance color ([4]; 2nd month): White powder; Purity (%) ([4]; 2nd month): 99.90%; Relevant substances ([4]; 2nd month): Undetected; Appearance color ([4]; 3rd month): White powder; Purity (%) ([4]; 3rd month): 99.95%; Relevant substances ([4]; 3rd month): Undetected; Appearance color ([4]; 6th month): White powder; Purity (%) ([4]; 6th month): 99.94%; Relevant substances ([4]; 6th month): Undetected; Appearance color ([4]; Month 0): White powder; Purity (%) ([4]; Month 0): 99.93%; Relevant substances ([4]; Month 0): Undetected; Stability (conclusion in words) [4]: stable
